According to paper PMC9960827, “Cloning and Characterization of Trypanosoma congolense and T. vivax Nucleoside Transporters Reveal the Potential of P1-Type Carriers for the Discovery of Broad-Spectrum Nucleoside-Based Therapeutics against Animal African Trypanosomiasis” (International Journal of Molecular Sciences, 2023):
Like-named read-outs stand apart in the source and are kept apart here. Marks after values point to notes of the source that are not given here.

Experiments:
TvxNT3 = TvxNT3 (Trypanosoma vivax, UniProt F9WV62); experiment: cell-based; assay type: cell-based; conditions: for remaining activity at 100 µM: read-out: [3H]-adenosine uptake remaining in presence of inhibitor; for δ(ΔG0): difference in ΔG0 relative to the parent purine (adenosine or inosine)
Sequence of TvxNT3 (F9WV62 entry or part of it): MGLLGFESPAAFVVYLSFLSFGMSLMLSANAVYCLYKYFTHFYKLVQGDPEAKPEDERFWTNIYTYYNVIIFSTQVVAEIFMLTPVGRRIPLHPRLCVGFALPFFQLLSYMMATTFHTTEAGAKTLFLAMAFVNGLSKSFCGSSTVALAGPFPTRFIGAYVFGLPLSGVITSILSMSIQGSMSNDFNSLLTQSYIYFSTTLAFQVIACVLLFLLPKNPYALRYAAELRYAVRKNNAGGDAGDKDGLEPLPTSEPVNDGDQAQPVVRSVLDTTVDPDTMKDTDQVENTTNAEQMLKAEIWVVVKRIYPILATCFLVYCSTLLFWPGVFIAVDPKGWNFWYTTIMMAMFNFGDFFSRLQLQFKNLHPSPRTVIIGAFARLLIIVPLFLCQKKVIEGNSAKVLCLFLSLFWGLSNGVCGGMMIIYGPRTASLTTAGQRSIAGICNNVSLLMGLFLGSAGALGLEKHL
Summary of the method: (§1)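 Transporter genes were expressed in an L. mexicana line lacking NT1 and NT2 (SUPKO), and 1 × 10^7 cells in HEPES/bicarbonate buffer pH 7.3 took up radiolabeled permeant through an oil layer, with or without inhibitor. Uptake was stopped with ice-cold unlabeled substrate or by centrifugation, and pellets were counted. IC50 against radiolabeled adenosine was converted to Ki by Cheng–Prusoff using the permeant Km.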

TbNT10 = tested on: TbNT10; set-up: method as in Al-Salabi et al. [40]; conditions: called Km values; ref Al-Salabi et al. [40]; cited from earlier work
[1] = tested on: T. congolense adenosine transporter; experiment: [3H]-adenosine uptake and its inhibition in T. congolense IL3000 bloodstream forms; assay type: cell-based, Trypanosoma congolense; conditions: for ΔG0, Gibbs free energy of interaction: calculated from Km or Ki; for Ki: 30 s, IC50 converted to Ki, read-out: Ki on the transport of [3H]-adenosine
Summary of the method: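 Bloodstream-form T. congolense IL3000 (1 × 10^7 cells) in HEPES/bicarbonate buffer pH 7.3 took up [3H]-adenosine over a set interval, with or without inhibitor, ending by ice-cold unlabeled substrate stop or centrifugation through oil. Pellet radioactivity gave IC50 by sigmoid fit; Ki followed by Cheng–Prusoff using adenosine Km.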

[2] = tested on: T. b. brucei P1 (TbP1/NT2); conditions: cited from earlier work; for Ki: read-out: Tbb P1 Ki
TcoAT1 [3] = assay type: cell-based, Trypanosoma congolense; conditions: for ΔG0: Gibbs free energy of binding, from Km or Ki; for Ki: 10 s, IC50 converted to Ki, read-out: Ki on the transport of [3H]-adenosine; for δ(ΔG0): loss of Gibbs free energy of binding relative to the parent nucleoside
Summary of the method: as §1

T.b.b. B48 [4] = tested on: T.b.b. B48; set-up: method as in Hulpia et al. [38]; conditions: compound marked *; ref Hulpia et al. [38]; cited from earlier work
T. congolense 6C3 [5] = experiment: microbe, parasite or virus in culture; assay type: cell-based, Trypanosoma congolense; conditions: for T. congolense 6C3 RF: resistance factor = EC50 (test strain)/EC50(control strain); for EC50: Trypanosoma congolense, read-out: T. congolense 6C3 EC50
Summary of the method: (§2)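 Values are averages of no fewer than three independent experiments performed on different days, with EC50 derived in each case from a sigmoid dose-response equation with variable slope.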

T. congolense 6C3 [6] = tested on: T. congolense 6C3; set-up: method as in Hulpia et al. [38]; conditions: values marked *; ref Hulpia et al. [38]; cited from earlier work
T. evansi = tested on: T. evansi; set-up: method as in Hulpia et al. [38]; conditions: compound marked *; ref Hulpia et al. [38]; cited from earlier work
T. congolense IL3000 [7] = tested on: T. congolense IL3000; set-up: method as in Hulpia et al. [38]; conditions: values marked *; ref Hulpia et al. [38]; cited from earlier work
BSF T. congolense = experiment: Manual cell count of T. congolense cultures exposed to drug; assay type: cell-based, Trypanosoma congolense
Protocol: For the direct assessment of test compounds on parasite growth, a manual cell count of cultures grown in the presence or absence of test drugs was carried out to determine the effect of test drugs on the multiplication rate of the parasites as described. The cells were adjusted to the required density in 2 mL of the appropriate medium with or without the drug/compound of interest, in a 24-well plate, followed by incubation under standard conditions. The cells were then manually counted at intervals with a Neubauer cell chamber using a phase-contrast light microscope (Axioscope, Zeiss, Jena, Germany).

T. vivax = tested on: T. vivax; set-up: method as in Mabille et al. [69]; conditions: added for comparison only; ref Mabille et al. [69]; cited from earlier work
T. equiperdum = tested on: T. equiperdum; set-up: method as in Hulpia et al. [38]; conditions: compound marked *; ref Hulpia et al. [38]; cited from earlier work
T. congolense IL3000 BSF = experiment: Nucleus/kinetoplast configuration (DAPI) of T. congolense exposed to drug; assay type: cell-based, Trypanosoma congolense; conditions: 2× or 5× EC50, 8 h
Protocol: To assess the effect of the drug on the cellular morphology and configuration of nuclei and kinetoplasts, treated cells were collected after incubation period, fixed, DAPI-treated and viewed under an Olympus IX71 DeltaVision Core System microscope (Applied Precision, GE) using the SoftWoRx suite 2.0 software (Applied Precision, GE). At least 300 cells were scored per slide for the number of kinetoplasts (K) and nuclei (N) as 1N1K, 1N2K, 2N2K, MKMN (M = many) and ‘others’ (aberrant N/K distribution).

[8] = tested on: human embryonic kidney (HEK) cells; experiment: Resazurin toxicity assay on human embryonic kidney cells; assay type: cell-based
Summary of the method: as §2

[9] = as above; assay type: cell-based; conditions: human
Summary of the method: as §2

TcoAT1 [10] = experiment: Uptake of [3H]-pentamidine and [3H]-diminazene in SUPKO+TcoAT1 versus SUPKO; assay type: cell-based, Trypanosoma congolense; conditions: 25 nM [3H]-pentamidine or 50 nM [3H]-diminazene, SUPKO+TcoAT1 vs SUPKO
Protocol: Uptake assays using radiolabeled trypanocides and/or nucleosides were carried out as described previously. Briefly, parasite cultures were harvested, washed twice in assay buffer (33 mM HEPES, 98 mM NaCl, 4.6 mM KCl, 0.5 mM CaCl2, 0.07 mM MgSO4, 5.8 mM NaH3PO4, 0.03 mM MgCl2, 23 mM NaHCO3, 14 mM D-glucose, pH 7.3), then resuspended and adjusted to a density of 1 × 10^8 cells/mL in assay buffer. The radiolabeled permeant in the presence or absence of different concentrations of potential inhibitors reconstituted in 100 μL assay buffer was deposited on top of 250 μL oil mix in microcentrifuge tubes; 1 × 10^7 parasites in 100 μL assay buffer were added to the tube and incubated for a pre-determined interval. The reaction was stopped by the addition of 1 mL of a high concentration of ice-cold unlabeled substrate in assay buffer (‘stop solution’) and centrifugation, or by immediate centrifugation at […] as appropriate. The microcentrifuge tubes were flash-frozen, and the bottom of each tube containing the cell pellet was cut off and transferred to a scintillation vial. Cell pellets were lysed in 2% SDS, after which scintillation fluid (Scintlogic U, Lablogic) was added, followed by overnight incubation in the dark. Scintillation was measured in a 300SL (Hidex) scintillation counter (Hidex). […]

L. mexicana SUPKO+TvxNT3 = experiment: microbe, parasite or virus in culture; assay type: cell-based, Leishmania mexicana; conditions: for EC50: Leishmania mexicana, read-out: SUPKO+TvxNT3 EC50
Summary of the method: as §2

L. mexicana SUPKO = experiment: microbe, parasite or virus in culture; assay type: cell-based, Leishmania mexicana; conditions: for EC50: Leishmania mexicana, read-out: SUPKO EC50, resazurin, promastigotes
Summary of the method: as §2

L. mexicana SUPKO+TcoAT1 = experiment: microbe, parasite or virus in culture; assay type: cell-based, Leishmania mexicana; conditions: for EC50: Leishmania mexicana, read-out: SUPKO+TcoAT1 EC50
Summary of the method: as §2

L. mexicana Cas9 = experiment: Resazurin drug sensitivity assay, LmexCas9; assay type: cell-based, Leishmania mexicana; conditions: Leishmania mexicana, read-out: LmexCas9 EC50
Summary of the method: as §2

[11] = tested on: L. mexicana expressing TbAQP2; set-up: method as in PMID 24235095; conditions: cited from earlier work
T. congolense IL3000 [12] = experiment: Alamar Blue (resazurin) assay, T. congolense IL3000; assay type: cell-based, Trypanosoma congolense; conditions: Trypanosoma congolense, read-out: T. congolense IL3000 EC50
Summary of the method: as §2

T.b.b. B48 [13] = experiment: Alamar Blue (resazurin) assay, T. b. brucei B48; assay type: cell-based, Trypanosoma brucei brucei; conditions: Trypanosoma brucei, read-out: T.b.b. B48 EC50
Summary of the method: as §2

[14] = tested on: T. congolense IL3000-based cell line expressing TbAT1; experiment: Resazurin drug sensitivity assay, T. congolense IL3000 expressing TbAT1; set-up: species or system Trypanosoma congolense; conditions: three independent clones, p < 0.0001
Protocol: EC50 values were determined by plotting to an equation for a sigmoid curve with variable slope (GraphPad Prism 8). All values were the average of at least three independent determinations on different days.

T. brucei wild type = conditions: cited from earlier work
T. brucei TbAT1-KO = conditions: cited from earlier work
[15] = Resistance Factor relative to SUPKO

| Compound | Km (TbNT10) | ΔG0, Gibbs free energy of interaction [1] | Tbb P1 ΔG0 [2] | ΔG0 (TcoAT1 [3]) | T. congolense 6C3 RF (T. congolense 6C3 [5]) | Ki ([1]; 0.05 µM [3H]-adenosine) | Ki (TcoAT1 [3]; 0.05 µM [3H]-adenosine) | δ(ΔG0) (TvxNT3) | Ki ([2]; T. b. brucei bloodstream forms) | δ(ΔG0) (TcoAT1 [3]) | EC50 (L. mexicana SUPKO+TvxNT3) | EC50 (L. mexicana SUPKO) | EC50 (L. mexicana SUPKO+TcoAT1) | EC50 (L. mexicana Cas9) | EC50 (T.b.b. B48 [13]) | also measured |
| --- | --- | --- | --- | --- | --- | --- | --- | --- | --- | --- | --- | --- | --- | --- | --- | --- |
| Nc1ncnc2c1ncn2[C@@H]1O[C@H](CO)[C@@H](O)[C@H]1O [Adenosine] | 0.41 µM | -8.6 kcal/mol | -8.8 kcal/mol | -8.7 kcal/mol | – | – | – | – | – | – | – | – | – | – | – | level of uptake of adenosine (TvxNT3; 50 nM [3H]-adenosine, SUPKO+TvxNT3): 3.9 × 10^−3 pmol(10^7 cells)^−1s^−1; remaining activity at 100 µM (TvxNT3): < 25%; Km ([1]; 0.05 µM [3H]-adenosine, 30 s incubation, bloodstream forms): 0.48 ± 0.03 µM; rate of adenosine uptake ([1]; 50 nM [3H]-adenosine, cultured IL3000): 0.014 ± 0.0037 pmol(10^7 cells)^−1s^−1; Vmax of adenosine uptake ([1]; 30 s incubation): 0.11 ± 0.02 pmol(10^7 cells)^−1s^−1; Km ([2]; T. b. brucei bloodstream forms, read-out: Tbb P1 Km for adenosine): 0.36 ± 0.05 µM; Km (TcoAT1 [3]; 0.05 µM [3H]-adenosine, 10 s incubation): 0.42 ± 0.03 µM |
| Nc1ncnc2c1c(Cl)cn2[C@@H]1O[C@H](CO)C[C@H]1O [FH8470, 7-chloro-7-deaza-3′-deoxyadenosine] | – | -6.48 kcal/mol | – | -5.76 kcal/mol | 0.53 ^a | 17500 ± 3400 nM | 60600 ± 10700 nM | – | – | – | – | – | – | – | – | EC50 (T.b.b. B48 [4]): 6.8 ± 0.9 nM; EC50 (T. congolense 6C3 [6]): 0.66 ± 0.03 nM; EC50 (T. evansi): 1.8 ± 0.2 nM; EC50 (T. congolense IL3000 [7]): 1.2 ± 0.2 nM; time to killing of the parasites (BSF T. congolense; 5 × EC50, exposure for 48 h or continuously): ≤ 72 h; time to death of the cells (BSF T. congolense; 15 × EC50, short exposure (8 h), washed out or continuous): ≤ 48 h; EC50 (T. vivax): 96 ± 82 nM; EC50 (T. equiperdum): 0.57 ± 0.08 nM; reduction of the number of cells with 2N2K configuration (T. congolense IL3000 BSF): 40–50 % of untreated control; SI T. congolense ([8]; selectivity index = EC50 (HEK cells)/EC50 (T. congolense)): 9800; SI T. equiperdum ([8]; selectivity index = EC50 (HEK cells)/EC50 (T. equiperdum)): 21,100; SI T. evansi ([8]; selectivity index = EC50 (HEK cells)/EC50 (T. evansi)): 6830; EC50 [9]: 12000 ± 320 nM |
| O=c1[nH]cnc2c1ncn2[C@@H]1O[C@H](CO)[C@@H](O)[C@H]1O [Inosine] | 0.53 µM | -8.96 kcal/mol | -8.68 kcal/mol | -8.53 kcal/mol | – | 270 ± 20 nM | 550 ± 90 nM | 1.21 kcal/mol | 440 ± 100 nM | 0.163 kcal/mol | – | – | – | – | – | remaining activity at 100 µM (TvxNT3; 100 µM inhibitor, 50 nM [3H]-adenosine): < 25% |
| N=C(N)c1ccc(OCCCCCOc2ccc(C(=N)N)cc2)cc1 [Pentamidine, reference compound] | – | – | – | – | 0.79 | – | – | – | – | – | 2310 ± 180 nM | 1830 ± 290 nM | 1730 ± 200 nM | 1430 ± 50 nM | 340 ± 60 nM | effect of the expression of TcoAT1 on the uptake of the trypanocide (TcoAT1 [10]): no effect; SUPKO+TvxNT3 RF (SUPKO) (L. mexicana SUPKO+TvxNT3; [15]): 0.77; SUPKO RF (Cas9) (L. mexicana SUPKO; Resistance Factor = EC50(SUPKO)/EC50(Cas9)): 1.28; SUPKO+TcoAT1 RF (SUPKO) (L. mexicana SUPKO+TcoAT1; [15]): 1.1; EC50 (T. congolense 6C3 [5]): 440 ± 150 nM; sensitization upon expression of TbAQP2 [11]: 40 fold; EC50 (T. congolense IL3000 [12]; BSF, resazurin): 550 ± 110 nM |
| Nc1ncnc2c1ccn2[C@@H]1O[C@H](CO)[C@@H](O)[C@H]1O [Tubercidin, 7-deazaadenosine] | – | – | -5.59 kcal/mol | -4.25 kcal/mol | – | 403000 ± 120000 nM | 754000 ± 54300 nM | -3.148 kcal/mol | 78000 ± 6400 nM | 4.441 kcal/mol | > 100000 nM | > 100000 nM | > 100000 nM | 440 ± 60 nM | 4300 ± 1300 nM | δ(ΔG0) (TvxNT3; listed as tubercidin): 3.15 kcal/mol; EC50 (T. congolense 6C3 [5]; diminazene resistant strain, resazurin): 1830 ± 390 nM; effect of TbAT1 expression on sensitivity [14]: highly significant sensitization; EC50 (T. brucei wild type): 150 ± 30 nM; EC50 (T. congolense IL3000 [12]): 3160 ± 500 nM; EC50 (T. brucei TbAT1-KO): 4300 ± 1300 nM; δ(ΔG0) (TcoAT1 [3]; listed as tubercidin): 4.45 kcal/mol |
